Results on 16 molecules are retold here after ChEMBL document CHEMBL4428133, “Tyrosyl-DNA phosphodiesterase inhibitors: Progress and potential” (Bioorg Med Chem, 2016).

As a reminder, the EC50 is the concentration that produces a half-maximal response. Higher therefore signals a need for much substance. By Ki is commonly meant a dissociation constant, usually derived from enzyme kinetics or from competition with a known ligand. What is called IC50 is the point on the concentration scale where inhibition reaches its midpoint.

The target of assay [1] is T1, Tyrosyl-DNA phosphodiesterase 2 (Homo sapiens, UniProt O95551).
T1 sequence (O95551 whole entry): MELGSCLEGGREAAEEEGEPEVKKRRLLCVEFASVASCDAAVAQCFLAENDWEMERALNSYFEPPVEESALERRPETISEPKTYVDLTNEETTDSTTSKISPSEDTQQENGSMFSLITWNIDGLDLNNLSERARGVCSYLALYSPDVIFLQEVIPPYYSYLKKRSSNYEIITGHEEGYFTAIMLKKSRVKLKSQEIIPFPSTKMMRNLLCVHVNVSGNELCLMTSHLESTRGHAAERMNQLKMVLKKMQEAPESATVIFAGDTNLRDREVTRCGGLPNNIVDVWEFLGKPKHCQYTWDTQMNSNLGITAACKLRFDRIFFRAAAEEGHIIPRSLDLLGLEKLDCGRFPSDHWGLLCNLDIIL
As to the kind of experiment: Inhibition of human N-terminal His-tagged TDP2 expressed in Escherichia coli JM109(DE3) using 5'-Y-TCCGTTGAAGCCTGCTTT-3' as substrate incubated for 60 mins by microplate reader analysis.

Assay [2] can be described thus: Non-competitive inhibition of human 7721 cell membrane-derived phospholipase D using phosphatidylcholine as substrate preincubated for 10 mins followed by substrate addition in presence of PIP2 by Cornish-Bowden plot analysis.
Assay [3] concerns the target T2, Tyrosyl-DNA phosphodiesterase 1 (Homo sapiens, UniProt Q9NUW8). The assay is described as follows: Inhibition of recombinant TDP1 (unknown origin) using 5'-32P-labeled N14Y DNA substrate incubated for 15 mins by PAGE analysis.
Assay [4] addresses T1, Tyrosyl-DNA phosphodiesterase 2. The assay is described as follows: Inhibition of human recombinant TDP2 using 18-mer single stranded 5'-32P-labeled cordycepin DNA substrate incubated for 15 mins by PAGE analysis.
For assay [5] the target is unchanged. As to the kind of experiment: Inhibition of TDP2 (unknown origin).
Assay [6] addresses T2, Tyrosyl-DNA phosphodiesterase 1. As to the kind of experiment: Inhibition of N-terminal His-tagged TDP1 (unknown origin) expressed in Escherichia coli BL21(DE3) using 5'-6-FAM-AGGATCTAAAAGACTT-3BHQ-3' as substrate preincubated for 30 mins followed by substrate addition by fluorescence assay.
A further assay concerns MCF7. As to the kind of experiment: Growth inhibition of human MCF7 cells at 10 uM after 96 hrs in presence of camptothecin by MTT assay relative to camptothecin alone. The note with it: MCF7, 96 h, read-out: GI. Format: functional. A general note: Tetrazolium assays rely on reduction of a dye to a coloured formazan, in cell work by metabolically active cells.
The target of another assay is T3, DNA topoisomerase 1 (Homo sapiens, UniProt P11387).
T3 sequence (P11387 whole entry): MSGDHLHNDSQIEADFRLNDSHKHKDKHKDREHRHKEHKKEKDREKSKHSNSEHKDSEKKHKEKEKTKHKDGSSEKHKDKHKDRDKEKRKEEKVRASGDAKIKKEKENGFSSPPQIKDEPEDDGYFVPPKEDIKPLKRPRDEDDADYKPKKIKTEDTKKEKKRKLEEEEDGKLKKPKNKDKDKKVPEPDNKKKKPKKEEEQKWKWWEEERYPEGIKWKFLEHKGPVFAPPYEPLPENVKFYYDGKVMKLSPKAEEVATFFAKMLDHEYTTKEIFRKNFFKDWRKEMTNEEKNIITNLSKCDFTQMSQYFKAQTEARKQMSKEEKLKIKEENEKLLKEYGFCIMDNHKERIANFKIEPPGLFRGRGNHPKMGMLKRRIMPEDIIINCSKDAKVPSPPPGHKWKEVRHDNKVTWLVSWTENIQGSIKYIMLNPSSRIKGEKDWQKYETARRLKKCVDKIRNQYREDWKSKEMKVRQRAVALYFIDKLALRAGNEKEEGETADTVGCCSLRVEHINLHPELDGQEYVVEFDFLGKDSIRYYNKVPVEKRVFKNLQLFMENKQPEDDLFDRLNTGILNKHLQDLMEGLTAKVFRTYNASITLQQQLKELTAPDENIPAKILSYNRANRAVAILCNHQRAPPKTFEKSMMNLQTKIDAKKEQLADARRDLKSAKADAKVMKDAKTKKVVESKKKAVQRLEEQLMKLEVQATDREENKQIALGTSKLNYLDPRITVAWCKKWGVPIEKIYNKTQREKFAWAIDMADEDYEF
As to the kind of experiment: Inhibition of topoisomerase-1 (unknown origin) using pBR 322 DNA as substrate.

The target of assay [7] is T2, Tyrosyl-DNA phosphodiesterase 1. The assay is described as follows: Inhibition of human N-terminal His-tagged TDP1 expressed in Escherichia coli BL21 using [32P]-D14Y duplex DNA as substrate incubated for 20 mins by PAGE analysis.
A short description of assay [8]: Inhibition of human Jurkat cell membrane-derived protein tyrosine phosphatase using o-phospho-L-tyrosine as substrate incubated for 15 mins by malachite green staining based assay.
The target of assay [9] is T2, Tyrosyl-DNA phosphodiesterase 1. As to the kind of experiment: Inhibition of TDP1 (unknown origin) using 14-mer duplex oligonucleotide [32P]-D14Y as substrate incubated for 20 mins by PAGE analysis.
The target is the same in assay [10]. The assay is described as follows: Inhibition of recombinant TDP1 (unknown origin) using 5'-32P-labeled N14Y DNA substrate incubated for 20 mins by PAGE analysis.

T2 sequence (Q9NUW8 whole entry): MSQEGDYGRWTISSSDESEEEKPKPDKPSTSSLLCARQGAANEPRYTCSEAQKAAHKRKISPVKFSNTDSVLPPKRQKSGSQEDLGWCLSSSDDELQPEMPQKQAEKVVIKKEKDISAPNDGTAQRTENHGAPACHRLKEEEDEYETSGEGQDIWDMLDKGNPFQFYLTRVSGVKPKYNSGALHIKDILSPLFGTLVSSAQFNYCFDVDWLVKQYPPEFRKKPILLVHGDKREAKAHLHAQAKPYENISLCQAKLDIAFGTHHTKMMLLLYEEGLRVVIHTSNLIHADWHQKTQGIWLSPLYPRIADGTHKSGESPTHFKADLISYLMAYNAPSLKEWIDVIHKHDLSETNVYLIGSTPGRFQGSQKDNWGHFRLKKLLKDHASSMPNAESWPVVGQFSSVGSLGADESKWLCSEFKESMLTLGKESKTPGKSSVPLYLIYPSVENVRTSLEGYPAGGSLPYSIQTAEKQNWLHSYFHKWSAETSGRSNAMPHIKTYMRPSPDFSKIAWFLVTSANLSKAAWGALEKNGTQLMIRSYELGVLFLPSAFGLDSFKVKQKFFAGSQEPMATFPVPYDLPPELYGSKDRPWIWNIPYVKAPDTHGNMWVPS

In assay [1], `Cc1cc2nc3c(=O)[nH]c(=O)nc-3n(C)c2cc1C=O` came in with an EC50 of 3.5 µM.

For the molecule `NCC1O[C@H](O[C@H]2[C@@H](O)[C@H](O[C@@H]3[C@@H](O)[C@H](N)C[C@H](N)[C@H]3O[C@H]3O[C@H](CN)[C@@H](O)[C@H](O)[C@H]3N)O[C@@H]2CO)[C@H](N)[C@@H](O)[C@@H]1O` (some centres undefined), the Ki in assay [2] turned out to be 8700 µM.

As to `COc1ccc2c(c1)Oc1nc(-c3ccc(C)cc3)nc(SCC(=O)Nc3ccc(C(=O)O)cc3)c1C2`, in assay [3], the IC50 amounted to 12.1 µM.

On to `CCn1cc(C(=O)O)c(=O)c2cc(F)c(N3CCN(CNc4ccc(S(=O)(=O)Nc5nc(C)cc(C)n5)cc4)CC3)cc21`, for which the IC50 in assay [3] amounted to 0.005 µM.

For the molecule `O=C(O)c1ccc(-c2ccc(/C=C3/NC(=O)N(Cc4ccccc4F)C3=O)o2)cc1`, the half-inhibitory concentration (IC50) in assay [4] was 32 µM; in assay [3] it was 7.7 µM.

As to `NC1=CC(N)=C2C=CC(=O)N=C2C1=O`, the IC50 in assay [5] was found to be 2 µM.

`O=C1NC(=S)NC(=O)C1=Cc1ccco1` returned an IC50 in assay [6] of 0.71 µM. In the assay with MCF7, the inhibition of growth at 10 µM stood at 25%.

In turn, `O=C1c2c(c3c4cccc(O)c4n([C@@H]4O[C@H](CO)[C@@H](O)[C@H](O)[C@H]4O)c3c3[nH]c4c(O)cccc4c23)C(=O)N1NC(CO)CO` returned an EC50 on DNA topoisomerase 1 of 0.58 µM.

`COc1c(N2CCN(CNc3ccc(S(=O)(=O)Nc4nc(C)cc(C)n4)cc3)C(C)C2)c(F)cc2c(=O)c(C(=O)O)cn(C3CC3)c12` (centres undefined): the IC50 in assay [3] stood at 0.022 µM.

In assay [7], `CCC[C@@H]1C[C@@H](C(=O)N[C@@H]([C@H]2O[C@H](SC)[C@H](OP(=O)(O)O)[C@@H](O)[C@H]2O)[C@H](C)Cl)N(C)C1` [CLINDAMYCIN PHOSPHATE] displayed an IC50 of 9100 µM.

In turn, `CN(N=O)c1cc(O)ccc1O` [DEPHOSTATIN] registered an IC50 in assay [8] of 7.7 µM.

Molecule `NC[C@@H]1O[C@H](O[C@H]2[C@@H](O)[C@H](O[C@@H]3[C@@H](O)[C@H](N)C[C@H](N)[C@H]3O[C@H]3O[C@H](CO)[C@@H](O)C[C@H]3N)O[C@@H]2CO)[C@H](N)[C@@H](O)[C@@H]1O[C@H]1O[C@H](CO)[C@@H](O)[C@H](O)[C@@H]1O` [LIVIDOMYCIN] gave an IC50 in assay [9] of 30000 µM.

As for `CCN[C@@H]1C[C@H](N)[C@@H](O[C@H]2OC(CN)=CC[C@H]2N)[C@H](O)[C@H]1O[C@H]1OC[C@](C)(O)[C@H](NC)[C@H]1O` [NETILMICIN], in [9], 8000 µM corresponded to half-maximal inhibition (IC50).

Molecule `COc1ccc(C[C@H](N)C(=O)N[C@H]2[C@@H](O)[C@H](n3cnc4c(N(C)C)ncnc43)O[C@@H]2CO)cc1` [PUROMYCIN] yielded an IC50 in [7] of 18000 µM.

`Cc1ccc(C(=O)Nc2ccc(S(=O)(=O)O)c3cc(S(=O)(=O)O)cc(S(=O)(=O)O)c23)cc1NC(=O)c1cccc(NC(=O)Nc2cccc(C(=O)Nc3cc(C(=O)Nc4ccc(S(=O)(=O)O)c5cc(S(=O)(=O)O)cc(S(=O)(=O)O)c45)ccc3C)c2)c1` [SURAMIN]: the IC50 in assay [10] amounted to 5 µM. For the same molecule, in [1], the EC50 came out at 24 µM.

`C=C(NC(=O)C(=C)NC(=O)c1csc(C2=N[C@@H]3c4csc(n4)[C@H]4NC(=O)c5csc(n5)[C@H]([C@](C)(O)[C@@H](C)O)NC(=O)[C@H]5CSC(=N5)/C(=C/C)NC(=O)[C@H]([C@@H](C)O)NC(=O)c5csc(n5)[C@]3(CC2)NC(=O)[C@H](C)NC(=O)C(=C)NC(=O)[C@H](C)NC(=O)[C@H]([C@@H](C)CC)N[C@@H]2C=Cc3c([C@H](C)O)cc(nc3[C@H]2O)C(=O)O[C@@H]4C)n1)C(N)=O` [THIOSTREPTON] yielded an IC50 in [7] of 1800 µM.
